This assay addresses T1, human Nav1.7 (hNav1.7) (Homo sapiens, UniProt Q15858).
T1 construct: expressed in transfected cells; host or cells: HEK293T
The experiment in a line: Whole-cell patch-clamp inhibition of Nav1.7 currents in transfected HEK293T cells. Conditions: HEK-293T; 10 μM compound; inhibition rate of Nav1.7; read-out: Inhibitory activity (10 μM). Type of assay: cell-based. Here is the method:
Human embryonic kidney (HEK) 293T (ATCC CRL-3216) and ND7/23 cells (National Collection of Authenticated Cell Cultures SCSP-5026) were cultured under standard conditions (5% CO2, 37 °C) in Dulbecco’s modified Eagle’s medium (DMEM) containing 10% fetal bovine serum and 1% penicillin-streptomycin solution(all from Gibco, Thermo Fisher Scientific, Waltham, MA, USA). When the cells reached 70% to 90% confluence, human Nav1.2 (hNav1.2), human Nav1.3 (hNav1.3), human Nav1.4 (hNav1.4), human Nav1.5 (hNav1.5), and mouse Nav1.6 (mNav1.6) channel plasmids were cotransfected with enhanced green fluorescent protein (eGFP) into HEK293T cells. Additionally, plasmids expressing β1 and β2 subunits tagged with eGFP were cotransfected with the human Nav1.7 (hNav1.7) channel into HEK293T cells. Human Nav1.8 (hNav1.8) was transiently transfected into ND7/23 cells, along with eGFP, using Lipofectamine 2000 (Invitrogen), adhering strictly to the manufacturer’s protocol. For manual patch-clamp experiments, the cells were plated onto glass coverslips and used within 20 to 48 h of transfection.
Whole-cell patch-clamp recordings were conducted at 25 ± 2 °C, utilizing an EPC 10USB patch-clamp amplifier (HEKA Elektronik, Lambrecht, Germany). Pipettes, with access resistance between 2.0 and 3.0 MΩ, were pulled from borosilicate glass capillary tubes using a 2-step vertical microelectrode puller (PC-10, Narishige Group, Tokyo, Japan). Voltage-clamp recordings were obtained with PatchMaster software v2 × 73 (HEKA Elektronik) 5 min after establishing whole-cell configuration, sampled at 20 kHz, and filtered at 5 kHz. To minimize voltage errors, 80% series resistance compensation was applied. Pipettes were filled with 140 mM CsF, 10 mM NaCl, 1 mM EGTA, and 10 mM HEPES (pH=7.4, adjusted with CsOH). The external solution contained 140 mM NaCl, 2 mM CaCl2, 1 mM MgCl2, 5 mM KCl, 10 mM HEPES, and 10 mM glucose (pH=7.4, adjusted with NaOH). IC50 values were determined in HEK293T or ND7/23 cell lines by voltage clamping at −80 mV, followed by stepping to the V1/2 of inactivation for 8 s to facilitate compound binding.
On the technique in general: In patch-clamp work, channel activity is measured electrically.
T1 sequence (Q15858 whole entry): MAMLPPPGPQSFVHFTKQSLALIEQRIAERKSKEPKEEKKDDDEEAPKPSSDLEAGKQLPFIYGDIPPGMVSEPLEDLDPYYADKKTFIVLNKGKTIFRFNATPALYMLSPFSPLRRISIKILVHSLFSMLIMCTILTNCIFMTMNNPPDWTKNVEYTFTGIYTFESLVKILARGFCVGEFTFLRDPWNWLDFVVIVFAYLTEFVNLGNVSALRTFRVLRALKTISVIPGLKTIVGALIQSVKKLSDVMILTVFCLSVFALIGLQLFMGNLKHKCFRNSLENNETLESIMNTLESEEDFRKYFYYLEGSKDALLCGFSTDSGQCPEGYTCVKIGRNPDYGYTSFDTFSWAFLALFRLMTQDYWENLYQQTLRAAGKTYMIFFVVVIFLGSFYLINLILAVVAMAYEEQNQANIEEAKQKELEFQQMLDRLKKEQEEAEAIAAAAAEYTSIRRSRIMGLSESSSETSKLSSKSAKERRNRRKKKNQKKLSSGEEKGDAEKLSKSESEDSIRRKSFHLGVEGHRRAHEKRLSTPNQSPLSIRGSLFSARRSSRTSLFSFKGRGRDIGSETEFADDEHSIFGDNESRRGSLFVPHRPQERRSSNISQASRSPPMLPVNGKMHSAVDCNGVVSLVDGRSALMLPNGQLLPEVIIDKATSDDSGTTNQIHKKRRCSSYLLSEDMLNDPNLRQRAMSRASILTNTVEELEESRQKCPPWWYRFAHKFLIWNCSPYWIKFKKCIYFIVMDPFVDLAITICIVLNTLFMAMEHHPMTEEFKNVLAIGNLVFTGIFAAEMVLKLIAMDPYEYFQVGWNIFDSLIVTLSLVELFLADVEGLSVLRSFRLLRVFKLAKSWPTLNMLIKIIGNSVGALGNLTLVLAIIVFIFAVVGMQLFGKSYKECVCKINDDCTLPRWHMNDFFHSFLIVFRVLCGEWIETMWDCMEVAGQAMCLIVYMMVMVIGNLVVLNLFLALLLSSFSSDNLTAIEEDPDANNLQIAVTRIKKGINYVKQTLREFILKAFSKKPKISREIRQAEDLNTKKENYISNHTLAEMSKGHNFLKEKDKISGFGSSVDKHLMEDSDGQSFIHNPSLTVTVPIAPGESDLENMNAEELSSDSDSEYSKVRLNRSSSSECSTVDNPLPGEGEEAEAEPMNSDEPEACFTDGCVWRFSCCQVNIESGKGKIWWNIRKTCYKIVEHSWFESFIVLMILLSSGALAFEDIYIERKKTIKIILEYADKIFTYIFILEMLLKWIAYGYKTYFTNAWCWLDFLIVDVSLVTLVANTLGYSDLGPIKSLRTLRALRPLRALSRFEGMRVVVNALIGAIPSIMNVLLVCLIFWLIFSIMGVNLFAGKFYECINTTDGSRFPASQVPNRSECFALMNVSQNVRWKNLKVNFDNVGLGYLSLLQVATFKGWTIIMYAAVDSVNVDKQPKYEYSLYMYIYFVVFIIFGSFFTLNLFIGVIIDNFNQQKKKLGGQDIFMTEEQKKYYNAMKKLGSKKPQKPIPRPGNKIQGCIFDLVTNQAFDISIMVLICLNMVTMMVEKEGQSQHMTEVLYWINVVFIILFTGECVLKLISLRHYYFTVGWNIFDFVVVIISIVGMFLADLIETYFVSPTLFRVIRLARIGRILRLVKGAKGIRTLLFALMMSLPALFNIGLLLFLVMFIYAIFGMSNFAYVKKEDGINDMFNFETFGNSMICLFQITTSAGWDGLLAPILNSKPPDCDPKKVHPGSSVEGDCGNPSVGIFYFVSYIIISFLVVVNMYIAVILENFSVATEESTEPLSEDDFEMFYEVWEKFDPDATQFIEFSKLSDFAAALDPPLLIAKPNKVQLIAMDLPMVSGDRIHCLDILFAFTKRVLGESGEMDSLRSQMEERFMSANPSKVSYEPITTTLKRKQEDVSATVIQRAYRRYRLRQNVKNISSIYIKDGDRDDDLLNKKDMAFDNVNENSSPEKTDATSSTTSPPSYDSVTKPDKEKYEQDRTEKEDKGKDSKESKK
T1 sequence (Q07699 19-218 partner): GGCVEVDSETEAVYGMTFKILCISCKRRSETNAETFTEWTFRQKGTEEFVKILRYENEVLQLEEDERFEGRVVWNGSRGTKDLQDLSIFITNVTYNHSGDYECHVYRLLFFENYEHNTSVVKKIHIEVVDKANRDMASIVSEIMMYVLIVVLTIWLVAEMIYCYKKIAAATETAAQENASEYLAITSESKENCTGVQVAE
T1 sequence (O60939 30-215 partner): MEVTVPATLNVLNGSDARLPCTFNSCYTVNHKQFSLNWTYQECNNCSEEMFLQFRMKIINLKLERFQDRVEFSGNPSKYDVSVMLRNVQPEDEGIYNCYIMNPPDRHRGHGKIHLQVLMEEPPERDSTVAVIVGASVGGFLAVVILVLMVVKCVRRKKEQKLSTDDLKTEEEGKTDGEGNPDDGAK
For the molecule `O=C(CSc1nc(=O)n(Cc2cccnc2)c2c1CCC2)NCc1ccc(F)cc1` [A1, C1CC2=C(C1)N(C(=O)N=C2SCC(=O)NCC3=CC=C(C=C3)F)CC4=CN=CC=C4], the inhibition at 10 µM is -0.67%.

For `COc1ccc(S(=O)(=O)Nc2ccc3c(c2)CCCN3C(=O)c2ccccc2)cc1OC` [A2, COC1=C(C=C(C=C1)S(=O)(=O)NC2=CC3=C(C=C2)N(CCC3)C(=O)C4=CC=CC=C4)OC], the inhibition at 10 µM was 36.6%.

As for `O=C(CC(c1cccc(OCc2ccccc2)c1)c1cn(Cc2ccc(F)cc2)c2ccccc12)NCCc1ccccc1` (stereo not shown) [A3, C1=CC=C(C=C1)CCNC(=O)CC(C2=CC(=CC=C2)OCC3=CC=CC=C3)C4=CN(C5=CC=CC=C54)CC6=CC=C(C=C6)F], the inhibition at 10 µM turned out to be 9.09%.

`O=C(CN(C(=O)c1ccc(Cl)cc1)C1CC1)Nc1nc(-c2ccccc2)cn1-c1ccccc1` [A4, C1CC1N(CC(=O)NC2=NC(=CN2C3=CC=CC=C3)C4=CC=CC=C4)C(=O)C5=CC=C(C=C5)Cl]: the inhibition at 10 µM was found to be 76.4%.

`COCCNC(=O)CC(c1ccc(OCc2ccccc2)c(OC)c1)c1cn(Cc2ccc(F)cc2)c2ccccc12` (stereo not shown) [A5, COCCNC(=O)CC(C1=CC(=C(C=C1)OCC2=CC=CC=C2)OC)C3=CN(C4=CC=CC=C43)CC5=CC=C(C=C5)F]: the inhibition at 10 µM stood at 3.57%.

Take `O=C(CC(c1cccc(Cl)c1)c1cn(Cc2ccc(F)cc2)c2ccccc12)NCC1COc2ccccc2O1` (stereo not shown) [A7, FC(C=C1)=CC=C1CN2C=C(C(CC(NCC3COC(C=CC=C4)=C4O3)=O)C5=CC(Cl)=CC=C5)C6=CC=CC=C62]: the inhibition at 10 µM is 58%.

With `COc1ccc(N2CC(C(=O)NC3CCCc4c3[nH]c3ccccc43)CC2=O)c(OC)c1` (stereo not shown) [A8, COC1=CC(=C(C=C1)N2CC(CC2=O)C(=O)NC3CCCC4=C3NC5=CC=CC=C45)OC], the inhibition at 10 µM amounted to 12.1%.

Turning to `Brc1ccc(-c2nc(-c3ccc(Oc4ccccc4)cc3)c(-c3ccc(Oc4ccccc4)cc3)[nH]2)cc1` [A9, C1=CC=C(C=C1)OC2=CC=C(C=C2)C3=C(N=C(N3)C4=CC=C(C=C4)Br)C5=CC=C(C=C5)OC6=CC=CC=C6], the inhibition at 10 µM was determined as 4.44%.

For `O=C1OC(Nc2ccc(S(=O)(=O)Nc3ccccn3)cc2)c2ccccc21` (stereo not shown) [A10, C1=CC=C2C(=C1)C(OC2=O)NC3=CC=C(C=C3)S(=O)(=O)NC4=CC=CC=N4], the inhibition at 10 µM stood at 2.74%.

In the case of `CS(=O)(=O)c1ccc2nc(NC(=O)Nc3ccc(Cl)c(Cl)c3)sc2c1` [A11, CS(=O)(=O)C1=CC2=C(C=C1)N=C(S2)NC(=O)NC3=CC(=C(C=C3)Cl)Cl], the inhibition at 10 µM was 4.91%.

`CC(=O)N1CCc2nc3sc(C(=O)Nc4cccc(C#N)c4)c(N)c3c(C(F)(F)F)c2C1` [A12, CC(=O)N1CCC2=C(C1)C(=C3C(=C(SC3=N2)C(=O)NC4=CC=CC(=C4)C#N)N)C(F)(F)F]: the inhibition at 10 µM is 9.32%.

Consider `CCOc1ccc(C2N(c3ccc(Cl)c(Cl)c3)N=C(C(C)=O)N2c2ccc(N3CCN(C(C)=O)CC3)cc2)cc1` (stereo not shown) [A13, CCOC1=CC=C(C=C1)C2N(C(=NN2C3=CC(=C(C=C3)Cl)Cl)C(=O)C)C4=CC=C(C=C4)N5CCN(CC5)C(=O)C], for which the inhibition at 10 µM worked out at 15.8%.

With `O=C(Nc1ccccc1C(F)(F)F)c1ccc2c(c1)C(=O)N(Cc1cccnc1)C2=O` [A14, C1=CC=C(C(=C1)C(F)(F)F)NC(=O)C2=CC3=C(C=C2)C(=O)N(C3=O)CC4=CN=CC=C4], the inhibition at 10 µM is 2.68%.

Regarding `O=C(CC(c1ccc(F)cc1)c1cn(Cc2ccccc2)c2ccccc12)NCCc1ccc(Cl)cc1Cl` (stereo not shown) [B1, C1=CC=C(C=C1)CN2C=C(C3=CC=CC=C32)C(CC(=O)NCCC4=C(C=C(C=C4)Cl)Cl)C5=CC=C(C=C5)F], the inhibition at 10 µM is 6.13%.

As to `O=C(CC(c1ccc(F)cc1)c1cn(Cc2ccccc2)c2ccccc12)NCc1ccccn1` (stereo not shown) [B2, C1=CC=C(C=C1)CN2C=C(C3=CC=CC=C32)C(CC(=O)NCC4=CC=CC=N4)C5=CC=C(C=C5)F], the inhibition at 10 µM was determined as 11.5%.

For the molecule `COc1ccc(Cn2cc(C(CC(=O)NCCc3ccccn3)c3ccc(C)cc3)c3ccccc32)cc1` (stereo not shown) [B3, CC1=CC=C(C=C1)C(CC(=O)NCCC2=CC=CC=N2)C3=CN(C4=CC=CC=C43)CC5=CC=C(C=C5)OC], the inhibition at 10 µM is 14.2%.

Consider `NC(=O)CC(c1ccc(C(F)(F)F)cc1)c1cn(Cc2ccc(F)cc2)c2ccccc12` (stereo not shown) [B4, C1=CC=C2C(=C1)C(=CN2CC3=CC=C(C=C3)F)C(CC(=O)N)C4=CC=C(C=C4)C(F)(F)F], for which the inhibition at 10 µM amounted to 13.4%.

Turning to `Cc1cccc(C(CC(=O)NCCc2ccccc2)c2cn(Cc3ccc(F)cc3)c3ccccc23)c1` (stereo not shown) [B5, CC1=CC(=CC=C1)C(CC(=O)NCCC2=CC=CC=C2)C3=CN(C4=CC=CC=C43)CC5=CC=C(C=C5)F], the inhibition at 10 µM is 2.93%.

As to `Cc1cccc(C(CC(=O)NCCC(C)C)c2cn(Cc3ccc(F)cc3)c3ccccc23)c1` (stereo not shown) [B6, CC1=CC(=CC=C1)C(CC(=O)NCCC(C)C)C2=CN(C3=CC=CC=C32)CC4=CC=C(C=C4)F], the inhibition at 10 µM turned out to be 7.88%.

As for `CCCCNC(=O)CC(c1cccc(C)c1)c1cn(Cc2ccc(F)cc2)c2ccccc12` (stereo not shown) [B7, CCCCNC(=O)CC(C1=CC=CC(=C1)C)C2=CN(C3=CC=CC=C32)CC4=CC=C(C=C4)F], the inhibition at 10 µM was found to be 1.84%.

Regarding `O=C(CC(c1ccc(F)cc1)c1cn(Cc2ccccc2)c2ccccc12)NC1CC1` (stereo not shown) [B8, C1CC1NC(=O)CC(C2=CC=C(C=C2)F)C3=CN(C4=CC=CC=C43)CC5=CC=CC=C5], the inhibition at 10 µM is 13.6%.

Regarding `Cc1ccc(Cn2cc(C(CC(=O)NC3CCCCC3)c3ccc(F)cc3)c3ccccc32)cc1` (stereo not shown) [B9, CC1=CC=C(C=C1)CN2C=C(C3=CC=CC=C32)C(CC(=O)NC4CCCCC4)C5=CC=C(C=C5)F], the inhibition at 10 µM came to 6.85%.

Consider `O=C(CC(c1ccc(C(F)(F)F)cc1)c1cn(Cc2ccccc2)c2ccccc12)NCCN1CCCC1` (stereo not shown) [B11, C1CCN(C1)CCNC(=O)CC(C2=CC=C(C=C2)C(F)(F)F)C3=CN(C4=CC=CC=C43)CC5=CC=CC=C5], for which the inhibition at 10 µM stood at 7.97%.

Regarding `COc1ccc(Cn2cc(C(CC(=O)NCCc3ccccn3)c3cc(C)ccc3F)c3ccccc32)cc1` (stereo not shown) [B12, CC1=CC(=C(C=C1)F)C(CC(=O)NCCC2=CC=CC=N2)C3=CN(C4=CC=CC=C43)CC5=CC=C(C=C5)OC], the inhibition at 10 µM was found to be 4.98%.

`O=C(CC(c1cccc(Oc2ccc(Cl)cc2)c1)c1cn(Cc2ccc(F)cc2)c2ccccc12)NCCc1ccccn1` (stereo not shown) [B13, C1=CC=C2C(=C1)C(=CN2CC3=CC=C(C=C3)F)C(CC(=O)NCCC4=CC=CC=N4)C5=CC(=CC=C5)OC6=CC=C(C=C6)Cl]: the inhibition at 10 µM amounted to 6.28%.

As to `Cn1cc(C(CC(=O)NCCc2ccccn2)c2cccc(C(F)(F)F)c2)c2ccccc21` (stereo not shown) [B14, CN1C=C(C2=CC=CC=C21)C(CC(=O)NCCC3=CC=CC=N3)C4=CC(=CC=C4)C(F)(F)F], the inhibition at 10 µM was 24.8%.

In the case of `CCOc1ccc(C(CC(=O)NCCc2ccccn2)c2cn(Cc3ccc(OC)cc3)c3ccccc23)cc1` (stereo not shown) [B15, CCOC1=CC=C(C=C1)C(CC(=O)NCCC2=CC=CC=N2)C3=CN(C4=CC=CC=C43)CC5=CC=C(C=C5)OC], the inhibition at 10 µM amounted to 20.5%.

Consider `O=C(CC(c1ccc(OCc2ccccc2)cc1)c1cn(Cc2ccc(F)cc2)c2ccccc12)NCCc1ccccn1` (stereo not shown) [B16, C1=CC=C(C=C1)COC2=CC=C(C=C2)C(CC(=O)NCCC3=CC=CC=N3)C4=CN(C5=CC=CC=C54)CC6=CC=C(C=C6)F], for which the inhibition at 10 µM was 4.16%.

For `COc1ccc(C(CC(=O)NCCc2ccccn2)c2cn(Cc3ccc(F)cc3)c3ccccc23)cc1OC` (stereo not shown) [B17, COC1=C(C=C(C=C1)C(CC(=O)NCCC2=CC=CC=N2)C3=CN(C4=CC=CC=C43)CC5=CC=C(C=C5)F)OC], the inhibition at 10 µM came to 34.9%.

In the case of `Cc1ccc(Cn2cc(C(CC(=O)NCCc3ccccn3)c3ccc(F)cc3)c3ccccc32)cc1` (stereo not shown) [B18, CC1=CC=C(C=C1)CN2C=C(C3=CC=CC=C32)C(CC(=O)NCCC4=CC=CC=N4)C5=CC=C(C=C5)F], the inhibition at 10 µM is 13.7%.

`O=C(CC(c1ccc(F)cc1)c1cn(Cc2ccc(F)cc2)c2ccccc12)NCCc1ccccn1` (stereo not shown) [B19, C1=CC=C2C(=C1)C(=CN2CC3=CC=C(C=C3)F)C(CC(=O)NCCC4=CC=CC=N4)C5=CC=C(C=C5)F]: the inhibition at 10 µM came to 22.9%.

`COc1ccc(C(CC(=O)NCCc2ccccn2)c2cn(Cc3ccc(F)cc3)c3ccccc23)cc1` (stereo not shown) [B20, COC1=CC=C(C=C1)C(CC(=O)NCCC2=CC=CC=N2)C3=CN(C4=CC=CC=C43)CC5=CC=C(C=C5)F]: the inhibition at 10 µM turned out to be 37.5%.

Turning to `CCN1CCN(C(=O)CC(c2ccc(C(F)(F)F)cc2)c2cn(Cc3ccc(F)cc3)c3ccccc23)CC1` (stereo not shown) [B21, CCN1CCN(CC1)C(=O)CC(C2=CC=C(C=C2)C(F)(F)F)C3=CN(C4=CC=CC=C43)CC5=CC=C(C=C5)F], the inhibition at 10 µM was 71.4%.

On to `COc1cc(OC)cc(C(CC(=O)NCCc2ccccn2)c2cn(Cc3ccccc3)c3ccccc23)c1` (stereo not shown) [B22, COC1=CC(=CC(=C1)C(CC(=O)NCCC2=CC=CC=N2)C3=CN(C4=CC=CC=C43)CC5=CC=CC=C5)OC], for which the inhibition at 10 µM came to 45%.

The record behind these values is paper PMC11775380, “Discovery of Novel Nav1.7-Selective Inhibitors with the 1H-Indole-3-Propionamide Scaffold for Effective Pain Relief” (Research, 2025).
